Measured values published in ChEMBL document CHEMBL1159108, “Synthesis and antimicrobial activity of 2-fluorophenyl-4,6-disubstituted [1,3,5]triazines” (2010).
Values after ≈ are worked out from the molar mass of the structure shown.

Key:
[1] = test system: Enterococcus faecium; experiment: Antibacterial activity against vancomycin-resistant Enterococcus faecium ATCC 49624; assay type: functional
[2] = test system: Staphylococcus epidermidis; experiment: Antibacterial activity against methicillin-sensitive Staphylococcus epidermidis ATCC 155-U; assay type: functional
[3] = test system: Bacillus cereus; experiment: Antibacterial activity against Bacillus cereus ATCC 13061; assay type: functional
[4] = test system: Candida albicans; experiment: Antifungal activity against Candida albicans ATCC 10231; assay type: functional
[5] = test system: Candida albicans; experiment: Antifungal activity against Candida albicans ATCC 10231
[6] = test system: Enterococcus faecalis; experiment: Antibacterial activity against Enterococcus faecalis; assay type: functional
[7] = test system: Staphylococcus aureus; experiment: Antibacterial activity against vancomycin-resistant Staphylococcus aureus; assay type: functional
[8] = test system: Staphylococcus aureus; experiment: Antibacterial activity against methicillin-resistant Staphylococcus aureus; assay type: functional
[9] = test system: Staphylococcus cohnii; experiment: Antibacterial activity against coagulase negative-susceptible Staphylococcus cohnii; assay type: functional
[10] = test system: Staphylococcus warneri; experiment: Antibacterial activity against coagulase negative-susceptible Staphylococcus warneri; assay type: functional
[11] = test system: Streptococcus pneumoniae; experiment: Antibacterial activity against multidrug-resistant Streptococcus pneumoniae; assay type: functional
[12] = test system: Streptococcus pneumoniae; experiment: Antibacterial activity against Streptococcus pneumoniae; assay type: functional
[13] = test system: Cutibacterium acnes; experiment: Antibacterial activity against Propionibacterium acnes; assay type: functional

NCCCCCNc1nc(Nc2cccc(F)c2)nc(-c2cncc(F)c2)n1
MIC [1]: 32 µg/mL (≈ 83 µM) | MIC [2]: 32 µg/mL (≈ 83 µM) | MIC [3]: 32 µg/mL (≈ 83 µM) | MIC [4]: > 100 µg/mL | MIC [5]: > 100 µg/mL

NCCCCCCNc1nc(Nc2cccc(F)c2)nc(-c2cccc(F)c2)n1
MIC [1]: 4 µg/mL (≈ 10 µM) | MIC [2]: 2 µg/mL (≈ 5.02 µM) | MIC [3]: 16 µg/mL (≈ 40.2 µM) | MIC [4]: 16 µg/mL (≈ 40.2 µM) | MIC [5]: 16 µg/mL (≈ 40.2 µM)

NCCCCCNc1nc(Nc2ccc(F)cc2)nc(-c2cccnc2)n1
MIC [1]: > 100 µg/mL | MIC [2]: 16 µg/mL (≈ 43.5 µM) | MIC [3]: > 100 µg/mL | MIC [4]: > 100 µg/mL | MIC [5]: > 100 µg/mL

NCCCCCNc1nc(Nc2cccc(F)c2)nc(-c2cc(F)cc(F)c2)n1
MIC [1]: 8 µg/mL (≈ 19.9 µM) | MIC [2]: 4 µg/mL (≈ 9.94 µM) | MIC [3]: 16 µg/mL (≈ 39.8 µM) | MIC [4]: 16 µg/mL (≈ 39.8 µM) | MIC [5]: 16 µg/mL (≈ 39.8 µM)

CC(C)(CN)CNc1nc(Nc2cccc(F)c2)nc(-c2cccc(F)c2)n1
MIC [1]: 8 µg/mL (≈ 20.8 µM) | MIC [2]: 2 µg/mL (≈ 5.2 µM) | MIC [3]: 8 µg/mL (≈ 20.8 µM) | MIC [4]: 4 µg/mL (≈ 10.4 µM)

Fc1cccc(Nc2nc(NC3CCCNC3)nc(-c3cccc(F)c3)n2)c1 (centres undefined)
MIC [1]: 4 µg/mL (≈ 10.5 µM) | MIC [2]: 2 µg/mL (≈ 5.23 µM) | MIC [3]: 8 µg/mL (≈ 20.9 µM) | MIC [4]: 8 µg/mL (≈ 20.9 µM) | MIC [5]: 8 µg/mL (≈ 20.9 µM)

CC1(C)CC(Nc2nc(Nc3cccc(F)c3)nc(-c3cccc(F)c3)n2)CC(C)(C)N1
MIC [1]: 4 µg/mL (≈ 9.12 µM) | MIC [2]: 2 µg/mL (≈ 4.56 µM) | MIC [3]: 4 µg/mL (≈ 9.12 µM) | MIC [4]: 32 µg/mL (≈ 73 µM)

NCC1CCC(CNc2nc(Nc3cccc(F)c3)nc(-c3cccc(F)c3)n2)CC1 (centres undefined)
MIC [1]: 8 µg/mL (≈ 18.8 µM) | MIC [2]: 8 µg/mL (≈ 18.8 µM) | MIC [3]: 8 µg/mL (≈ 18.8 µM) | MIC [4]: 64 µg/mL (≈ 151 µM)

NCC1(CNc2nc(Nc3cccc(F)c3)nc(-c3cccc(F)c3)n2)CCCC1
MIC [1]: 32 µg/mL (≈ 78 µM) | MIC [2]: 16 µg/mL (≈ 39 µM) | MIC [3]: 32 µg/mL (≈ 78 µM) | MIC [4]: 8 µg/mL (≈ 19.5 µM)

NCCCCCNc1nc(Nc2cccc(F)c2)nc(-c2cccc(O)c2)n1
MIC [1]: 8 µg/mL (≈ 20.9 µM) | MIC [2]: 8 µg/mL (≈ 20.9 µM) | MIC [3]: 8 µg/mL (≈ 20.9 µM) | MIC [4]: 32 µg/mL (≈ 83.7 µM)

NCCCCCNc1nc(-c2cccc(F)c2)nc(-c2cccc(F)c2)n1
MIC [1]: 8 µg/mL (≈ 21.7 µM) | MIC [2]: 2 µg/mL (≈ 5.41 µM) | MIC [4]: 4 µg/mL (≈ 10.8 µM)

NCCCCCNc1nc(NCCc2ccc(O)cc2)nc(-c2cccc(F)c2)n1
MIC [1]: 16 µg/mL (≈ 39 µM) | MIC [2]: 8 µg/mL (≈ 19.5 µM) | MIC [3]: 8 µg/mL (≈ 19.5 µM) | MIC [4]: > 100 µg/mL | MIC [5]: > 100 µg/mL

NCCN(CCN)c1nc(NCCc2ccc(O)cc2)nc(-c2cccc(F)c2)n1
MIC [1]: 8 µg/mL (≈ 19.4 µM) | MIC [2]: 4 µg/mL (≈ 9.72 µM) | MIC [3]: 8 µg/mL (≈ 19.4 µM) | MIC [4]: > 100 µg/mL | MIC [5]: > 100 µg/mL

NCCCCCNc1nc(NCCc2ccc(O)cc2)nc(-c2ccc(F)cc2)n1
MIC [3]: 4 µg/mL (≈ 9.74 µM) | MIC [4]: > 100 µg/mL | MIC [5]: > 100 µg/mL

NCCCCCNc1nc(NCCc2ccc(O)cc2)nc(Nc2ccc(F)cc2)n1
MIC [6]: 128 µg/mL (≈ 301 µM) | MIC [1]: 128 µg/mL (≈ 301 µM) | MIC [7]: 64 µg/mL (≈ 150 µM) | MIC [8]: 128 µg/mL (≈ 301 µM) | MIC [9]: 32 µg/mL (≈ 75.2 µM) | MIC [10]: 64 µg/mL (≈ 150 µM) | MIC [2]: 64 µg/mL (≈ 150 µM) | MIC [11]: 64 µg/mL (≈ 150 µM) | MIC [12]: 64 µg/mL (≈ 150 µM) | MIC [3]: 16 µg/mL (≈ 37.6 µM) | MIC [13]: 32 µg/mL (≈ 75.2 µM) | MIC [4]: > 100 µg/mL | MIC [5]: > 100 µg/mL

NCCCCCNc1nc(Nc2ccc(F)cc2)nc(-c2cccc(F)c2)n1
MIC [1]: 8 µg/mL (≈ 20.8 µM) | MIC [2]: 2 µg/mL (≈ 5.2 µM) | MIC [3]: 4 µg/mL (≈ 10.4 µM) | MIC [4]: 4 µg/mL (≈ 10.4 µM)

NCCCCCNc1nc(Nc2cccc(F)c2)nc(-c2ccc(F)cc2)n1
MIC [1]: 8 µg/mL (≈ 20.8 µM) | MIC [2]: 2 µg/mL (≈ 5.2 µM) | MIC [3]: 4 µg/mL (≈ 10.4 µM) | MIC [4]: 4 µg/mL (≈ 10.4 µM)

NCCCCCNc1nc(Nc2cccc(F)c2)nc(-c2ccccc2F)n1
MIC [1]: 8 µg/mL (≈ 20.8 µM) | MIC [2]: 4 µg/mL (≈ 10.4 µM) | MIC [3]: 64 µg/mL (≈ 166 µM) | MIC [4]: 16 µg/mL (≈ 41.6 µM)

NCCCCCNc1nc(Nc2cccc(C(F)(F)F)c2)nc(-c2cccc(F)c2)n1
MIC [1]: 4 µg/mL (≈ 9.21 µM) | MIC [2]: 8 µg/mL (≈ 18.4 µM) | MIC [3]: 16 µg/mL (≈ 36.8 µM) | MIC [4]: 16 µg/mL (≈ 36.8 µM)

NCCN(CCN)c1nc(NCCc2ccc(O)cc2)nc(-c2ccc(F)cc2)n1
MIC [1]: 16 µg/mL (≈ 38.9 µM) | MIC [2]: 8 µg/mL (≈ 19.4 µM) | MIC [3]: 16 µg/mL (≈ 38.9 µM) | MIC [4]: 32 µg/mL (≈ 77.8 µM)

NCCCCCCCNc1nc(Nc2cccc(F)c2)nc(-c2cccc(F)c2)n1
MIC [1]: 16 µg/mL (≈ 38.8 µM) | MIC [2]: 8 µg/mL (≈ 19.4 µM) | MIC [3]: 16 µg/mL (≈ 38.8 µM) | MIC [4]: 64 µg/mL (≈ 155 µM)

NCCCCCNc1nc(Nc2cccc(F)c2)nc(-c2cccc(F)c2)n1
MIC [6]: 8 µg/mL (≈ 20.8 µM) | MIC [1]: 4 µg/mL (≈ 10.4 µM) | MIC [7]: 8 µg/mL (≈ 20.8 µM) | MIC [8]: 8 µg/mL (≈ 20.8 µM) | MIC [9]: 2 µg/mL (≈ 5.2 µM) | MIC [10]: 4 µg/mL (≈ 10.4 µM) | MIC [2]: 8 µg/mL (≈ 20.8 µM) | MIC [11]: 8 µg/mL (≈ 20.8 µM) | MIC [12]: 8 µg/mL (≈ 20.8 µM) | MIC [3]: 8 µg/mL (≈ 20.8 µM) | MIC [13]: 16 µg/mL (≈ 41.6 µM) | MIC [4]: 8 µg/mL (≈ 20.8 µM) | MIC [5]: 8 µg/mL (≈ 20.8 µM)

NCc1ccc(CNc2nc(Nc3cccc(F)c3)nc(-c3cccc(F)c3)n2)cc1
MIC [1]: 8 µg/mL (≈ 19.1 µM) | MIC [2]: 4 µg/mL (≈ 9.56 µM) | MIC [3]: 16 µg/mL (≈ 38.2 µM) | MIC [4]: 16 µg/mL (≈ 38.2 µM)

NCCCCCNc1nc(Nc2cccc(F)c2)nc(-c2cccnc2)n1
MIC [1]: 16 µg/mL (≈ 43.5 µM) | MIC [2]: 8 µg/mL (≈ 21.8 µM) | MIC [3]: > 100 µg/mL | MIC [4]: > 100 µg/mL | MIC [5]: > 100 µg/mL

C[C@@H]1[C@H](O)[C@@H](C)/C=C/C=C/C=C/C=C/C=C/C=C/C=C/[C@H](O[C@@H]2O[C@H](C)[C@@H](O)[C@H](N)[C@@H]2O)C[C@@H]2O[C@](O)(C[C@@H](O)C[C@@H](O)[C@H](O)CC[C@@H](O)C[C@@H](O)CC(=O)O[C@H]1C)C[C@H](O)[C@H]2C(=O)O [AMPHOTERICIN B]
MIC [4]: 1 µg/mL (≈ 1.08 µM)

O=C(O)c1cn(C2CC2)c2cc(N3CCNCC3)c(F)cc2c1=O [CIPROFLOXACIN]
MIC [6]: > 16 µg/mL | MIC [1]: > 16 µg/mL | MIC [7]: > 16 µg/mL | MIC [8]: > 16 µg/mL | MIC [9]: 0.12 µg/mL (≈ 0.362 µM) | MIC [10]: > 16 µg/mL | MIC [2]: > 16 µg/mL | MIC [11]: 1 µg/mL (≈ 3.02 µM) | MIC [12]: > 16 µg/mL | MIC [13]: 0.5 µg/mL (≈ 1.51 µM)

CN[C@@H]1[C@H](O[C@H]2[C@H](O[C@H]3[C@H](O)[C@@H](O)[C@H](N=C(N)N)[C@@H](O)[C@@H]3N=C(N)N)O[C@@H](C)[C@]2(O)C=O)O[C@@H](CO)[C@H](O)[C@H]1O.CN[C@@H]1[C@H](O[C@H]2[C@H](O[C@H]3[C@H](O)[C@@H](O)[C@H](N=C(N)N)[C@@H](O)[C@@H]3N=C(N)N)O[C@@H](C)[C@]2(O)C=O)O[C@@H](CO)[C@H](O)[C@H]1O.O=S(=O)(O)O.O=S(=O)(O)O.O=S(=O)(O)O [STREPTOMYCIN SULFATE]
MIC [1]: > 16 µg/mL | MIC [2]: > 16 µg/mL | MIC [3]: 8 µg/mL
